Test results: patent US20060240494A1, “Biocidal molecules, macromolecular targets and methods of production and use” (priority 2000, published 2006)
Residues, ends and D or L forms follow the SMILES beside them. *: point of attachment. 5FAM = O=C1OC2(c3ccc(O)cc3Oc3cc(O)ccc32)c2ccc(C(=O)*)cc21

How the values were obtained:
E. coli DnaK aa596-637 = E. coli DnaK aa596-637 (Escherichia coli, UniProt P0A6Y8); test: Fluorescence polarization with DnaK extreme C-terminus fragment; type: binding; conditions: PBS; qualitative
[1] = molecular target: blocked E. coli DnaK fragment aa591-615 (Escherichia coli, UniProt P0A6Y8); type: binding; conditions: PBS; qualitative
[2] = molecular target: E. coli DnaK aa513-551 (A-B helix fragment) (Escherichia coli, UniProt P0A6Y8); test: Fluorescence polarization with DnaK A-B helix fragment; type: binding
[3] = molecular target: E. coli DnaK fragment aa583-615 (D-E helix hinge) (Escherichia coli, UniProt P0A6Y8); test: Fluorescence polarization with synthetic DnaK fragment aa583-615; type: binding; conditions: Tris HCl at pH 8.0; labeled peptide 1 nM
Description: The binding of the synthetic DnaK fragments to their fluorescein-labeled pyrrhocoricin counterparts was also assessed in solution, by fluorescence polarization [Lundblad, J. R. et al, (1996) Mol. Endocrinol. 10: 607-612]. For these experiments, the unlabeled peptides were serially diluted in PBS (pH 7.4) or 0.1 M Tris-HCl (pH 8.0) containing 0.1 M ethylene-diamine-tetraacetic acid (EDTA) in 50 μL final volume in 6×50 mm disposable glass borosilicate tubes. The fluoresceinated peptides were added to each tube in a 50 μL aliquot to a final concentration of 1 nM and tubes were incubated at 37° C. for 5 minutes. The extent of fluorescence anisotropy was measured on a Beacon 2000 fluorescence polarization instrument (PanVera, Madison, Wis.) and calculated as millipolarization values. The filters used were 485 nm excitation and 535 nm emission with 3 nm band width. Non-linear curve fitting was done by using a dose-response logistical transition [y=a0+a1/(1+x/a2)^a^3] and the Levenberg-Marquardt Algorithm within the SlideWrite software package. The provided Kd value (a2 coefficient) was calculated by the program.
To quantitatively characterize the pyrrhocoricin—D-E helix interaction, the complete binding curves were measured for E. coli DnaK fragments aa583-615 and aa588-615, both of SEQ ID NO: 10.

[4] = molecular target: E. coli DnaK fragment aa397-439 (conventional peptide binding pocket) (Escherichia coli, UniProt P0A6Y8); test: Fluorescence polarization with DnaK fragment aa397-439; conditions: PBS; qualitative
GroES = molecular target: T1, GroES (Escherichia coli, UniProt P0A6F9); test: Fluorescence polarization binding of fluorescein-labeled peptides to GroES; conditions: GroES at both concentrations (4 μM and 2 μM); peptide 1 nM; blank about 62
T1 construct: purchased; host or cells: E. coli
Excerpt: (§1) All solid-phase assays that separate the bound form of the ligand from the free form are suspect. Therefore, in the next step, the binding of labeled peptides to the heat shock/chaperone proteins and to LPS was observed by fluorescence polarization.
(§2) In one example, three fluorescein-labeled peptides were synthesized with the fluorescein label attached at the N-terminus of the peptide: fluorescein-K-pyrrhocoricin (N-F-pyrrhocoricin), fluorescein-K-drosocin (unglycosylated; N-F-drosocin), and fluorescein-K-apidaecin (N-F-apidaecin). A C-terminally labeled peptide was also made, i.e., pyrrhocoricin-K-fluorescein (C-F-pyrrhocoricin). The C-terminally labeled pyrrhocoricin peptide (C-F-pyrrhocoricin) was made to investigate the possibility of spatial separation of the active sites. From earlier experiments, it was clear that pyrrhocoricin and drosocin bind to the receptor(s) with their two terminal domains [Hoffmann, R. et al, (1999) Biochim. Biophys. Acta, 1426: 459-467; McManus, A. et al, (1999) Biochemistry, 38: 705-714].
(§3) During fluorescence polarization, positive signals are detected only when the free rotation of the fluorescein attached to one of the interacting partners is slowed down due to binding to the other partner when this label is not exceedingly far from the site of interaction. […]

Ras = test: Fluorescence polarization binding of fluorescein-labeled peptides to Ras (negative control protein); conditions: Ras at both concentrations (4 μM and 2 μM); peptide 1 nM; blank about 62
Excerpt: as §1, §2, §3

Hsp60 = molecular target: T2, Hsp60 (Homo sapiens, UniProt P10809); test: Fluorescence polarization binding of fluorescein-labeled peptides to Hsp60; conditions: peptide 1 nM, blank about 62
T2 construct: purchased; host or cells: E. coli
Excerpt: as §1, §2, §3

[5] = molecular target: T3, S. aureus DnaK 554-585 (D-E helix fragment) (Staphylococcus aureus, UniProt P45554); test: Fluorescence polarization with S. aureus DnaK D-E helix fragment; type: binding
T3 sequence (P45554 554-585 limits assumed): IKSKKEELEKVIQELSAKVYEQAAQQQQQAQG

DnaK = DnaK (Escherichia coli, UniProt P0A6Y8); test: Fluorescence polarization binding of fluorescein-labeled peptides to DnaK; design: purchased; host or cells: E. coli; species or system E. coli; conditions: for minipolarization value: peptide 1 nM, blank about 62
Excerpt: (§4) All solid-phase assays that separate the bound form of the ligand from the free form are suspect.
(§5) In one example, three fluorescein-labeled peptides were synthesized with the fluorescein label attached at the N-terminus of the peptide: fluorescein-K-pyrrhocoricin (N-F-pyrrhocoricin), fluorescein-K-drosocin (unglycosylated; N-F-drosocin), and fluorescein-K-apidaecin (N-F-apidaecin). […] Biophys. Acta, 1426: 459-467; McManus, A. et al, (1999) Biochemistry, 38: 705-714].
(§6) During fluorescence polarization, positive signals are detected only when the free rotation of the fluorescein attached to one of the interacting partners is slowed down due to binding to the other partner when this label is not exceedingly far from the site of interaction. If the label is placed too far from the binding site, the flexibility of peptide-like structures will resume free rotation of the fluorescein moiety, resulting in no polarization anisotropy, even if positive binding occurs. As a negative control fluorescein-labeled peptide, a fragment of the […] of human tubulin was used [Otvos, L., Jr. et al, (1998) Protein and Peptide Lett., 5: 207-213].
The same heat shock proteins and LPS preparations were used as in the Western-blotting, except DnaJ was not studied. Ras was used as a negative control protein. The fluorescein-K-pyrrhocoricin—DnaK binding study was repeated with an additional DnaK preparation, purchased from another source. The labeled peptides were used in fixed 1 nM concentrations. […] The initial concentration of LPS was set to 0.5 mg/ml, and dilutions were made until 0.031 mg/ml.

GroEL = GroEL (Escherichia coli, UniProt P0A6F5); test: Fluorescence polarization binding of fluorescein-labeled peptides to GroEL; design: purchased; host or cells: E. coli; species or system E. coli; conditions: peptide 1 nM, blank about 62
Excerpt: as §4, §5, §6
The same heat shock proteins and LPS preparations were used as in the Western-blotting, except DnaJ was not studied. Ras was used as a negative control protein. […]

GrpE = molecular target: T4, GrpE (Escherichia coli, UniProt P09372); test: Fluorescence polarization binding of fluorescein-labeled peptides to GrpE; conditions: GrpE at both concentrations (4 μM and 2 μM); peptide 1 nM; blank about 62
T4 construct: purchased; host or cells: E. coli
Excerpt: as §1, §2, §3

Hsp70 = Hsp70 (Homo sapiens, UniProt P0DMV8); test: Fluorescence polarization binding of fluorescein-labeled peptides to Hsp70; design: purchased; host or cells: E. coli; conditions: Hsp70 at both concentrations (4 μM and 2 μM); peptide 1 nM; blank about 62
Excerpt: as §1, §2, §3

Sequence of DnaK (P0A6Y8 whole entry): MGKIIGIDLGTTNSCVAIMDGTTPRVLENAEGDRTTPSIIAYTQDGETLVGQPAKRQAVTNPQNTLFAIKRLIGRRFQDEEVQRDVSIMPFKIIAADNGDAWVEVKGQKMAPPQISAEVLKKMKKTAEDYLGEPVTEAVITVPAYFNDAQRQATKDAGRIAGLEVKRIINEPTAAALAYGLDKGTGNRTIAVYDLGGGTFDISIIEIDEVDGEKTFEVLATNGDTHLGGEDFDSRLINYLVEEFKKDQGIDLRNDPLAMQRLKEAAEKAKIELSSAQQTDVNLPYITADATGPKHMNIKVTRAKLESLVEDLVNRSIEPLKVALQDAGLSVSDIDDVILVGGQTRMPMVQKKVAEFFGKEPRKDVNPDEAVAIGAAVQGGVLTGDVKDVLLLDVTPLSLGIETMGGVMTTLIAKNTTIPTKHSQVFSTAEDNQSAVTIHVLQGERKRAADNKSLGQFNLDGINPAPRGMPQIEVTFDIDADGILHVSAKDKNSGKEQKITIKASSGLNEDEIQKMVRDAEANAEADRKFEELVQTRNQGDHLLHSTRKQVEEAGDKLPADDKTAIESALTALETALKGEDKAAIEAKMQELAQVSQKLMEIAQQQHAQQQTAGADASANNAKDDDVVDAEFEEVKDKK
T2 sequence (P10809 27-573): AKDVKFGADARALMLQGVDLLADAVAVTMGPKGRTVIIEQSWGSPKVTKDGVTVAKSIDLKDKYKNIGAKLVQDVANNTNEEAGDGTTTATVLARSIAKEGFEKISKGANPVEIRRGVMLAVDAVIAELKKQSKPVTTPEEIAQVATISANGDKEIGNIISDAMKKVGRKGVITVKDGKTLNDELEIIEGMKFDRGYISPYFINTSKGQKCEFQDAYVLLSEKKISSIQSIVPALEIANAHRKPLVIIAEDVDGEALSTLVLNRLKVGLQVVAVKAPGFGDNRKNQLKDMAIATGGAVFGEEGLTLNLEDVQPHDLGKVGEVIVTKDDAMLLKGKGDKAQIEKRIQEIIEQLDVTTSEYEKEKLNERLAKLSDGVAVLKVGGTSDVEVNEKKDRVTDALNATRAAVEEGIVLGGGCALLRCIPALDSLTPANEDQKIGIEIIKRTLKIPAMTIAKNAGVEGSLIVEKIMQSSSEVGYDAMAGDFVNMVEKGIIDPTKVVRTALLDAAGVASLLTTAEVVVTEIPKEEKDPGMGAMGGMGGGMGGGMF
Sequence of GroEL (P0A6F5 2-548 limits assumed): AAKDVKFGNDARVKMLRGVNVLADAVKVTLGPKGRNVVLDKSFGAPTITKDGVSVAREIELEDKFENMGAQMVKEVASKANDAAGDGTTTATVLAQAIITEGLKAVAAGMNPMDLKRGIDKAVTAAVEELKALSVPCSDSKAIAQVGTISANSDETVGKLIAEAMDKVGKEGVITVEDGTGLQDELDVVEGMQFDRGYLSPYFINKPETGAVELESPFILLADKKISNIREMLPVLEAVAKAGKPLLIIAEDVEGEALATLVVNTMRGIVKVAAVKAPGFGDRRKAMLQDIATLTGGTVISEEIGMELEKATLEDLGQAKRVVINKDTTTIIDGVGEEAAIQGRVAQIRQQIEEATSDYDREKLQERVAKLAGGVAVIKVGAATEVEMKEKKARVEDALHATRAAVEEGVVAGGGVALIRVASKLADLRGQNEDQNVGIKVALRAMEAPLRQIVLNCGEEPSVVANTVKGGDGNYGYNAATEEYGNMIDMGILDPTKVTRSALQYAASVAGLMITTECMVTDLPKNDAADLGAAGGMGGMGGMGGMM
Sequence of E. coli DnaK aa513-551 (A-B helix fragment) (P0A6Y8 514-552 limits assumed): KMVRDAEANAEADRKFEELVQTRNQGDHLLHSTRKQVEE
Sequence of E. coli DnaK fragment aa397-439 (conventional peptide binding pocket) (P0A6Y8 397-439): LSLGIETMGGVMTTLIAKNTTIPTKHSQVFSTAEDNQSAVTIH
Sequence of Hsp70 (P0DMV8 whole entry): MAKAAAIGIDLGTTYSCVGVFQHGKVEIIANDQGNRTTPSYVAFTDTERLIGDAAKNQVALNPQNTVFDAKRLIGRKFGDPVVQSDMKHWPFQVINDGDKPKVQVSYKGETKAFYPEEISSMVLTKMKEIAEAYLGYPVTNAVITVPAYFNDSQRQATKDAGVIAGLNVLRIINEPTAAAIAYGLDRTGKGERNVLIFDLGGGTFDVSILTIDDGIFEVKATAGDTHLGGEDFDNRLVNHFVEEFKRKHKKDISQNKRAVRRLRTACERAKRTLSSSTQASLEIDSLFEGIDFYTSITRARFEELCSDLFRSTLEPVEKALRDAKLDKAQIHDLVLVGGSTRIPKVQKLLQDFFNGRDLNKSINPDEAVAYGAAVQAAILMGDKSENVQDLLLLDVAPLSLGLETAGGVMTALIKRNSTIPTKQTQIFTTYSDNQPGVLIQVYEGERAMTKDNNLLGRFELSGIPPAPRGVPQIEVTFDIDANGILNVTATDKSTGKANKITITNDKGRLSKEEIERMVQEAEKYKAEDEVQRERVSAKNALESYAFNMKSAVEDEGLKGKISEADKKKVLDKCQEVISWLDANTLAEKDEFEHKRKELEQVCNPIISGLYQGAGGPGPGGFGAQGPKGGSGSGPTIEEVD
Sequence of blocked E. coli DnaK fragment aa591-615 (P0A6Y8 592-616 limits assumed): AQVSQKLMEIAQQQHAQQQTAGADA
Sequence of E. coli DnaK aa596-637 (P0A6Y8 597-638): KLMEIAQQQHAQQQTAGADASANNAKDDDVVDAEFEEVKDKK
T1 sequence (P0A6F9 whole entry): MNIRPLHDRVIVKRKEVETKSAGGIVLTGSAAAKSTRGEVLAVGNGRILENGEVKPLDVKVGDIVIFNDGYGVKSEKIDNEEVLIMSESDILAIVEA
T4 sequence (P09372 whole entry): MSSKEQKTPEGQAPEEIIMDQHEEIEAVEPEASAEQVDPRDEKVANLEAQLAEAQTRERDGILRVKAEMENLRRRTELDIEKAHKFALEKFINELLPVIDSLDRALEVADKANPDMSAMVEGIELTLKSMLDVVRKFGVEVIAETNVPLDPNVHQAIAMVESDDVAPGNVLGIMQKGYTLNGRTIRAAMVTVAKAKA
Sequence of E. coli DnaK fragment aa583-615 (D-E helix hinge) (P0A6Y8 584-616): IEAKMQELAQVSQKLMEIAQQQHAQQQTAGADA

CC[C@H](C)[C@H](NC(=O)[C@@H]1CCCN1C(=O)[C@H](CCCNC(=N)N)NC(=O)[C@@H]1CCCN1C(=O)[C@@H]1CCCN1C(=O)[C@@H](NC(=O)[C@@H]1CCCN1C(=O)[C@H](CCCNC(=N)N)NC(=O)[C@@H]1CCCN1C(=O)[C@H](CC(C)C)NC(=O)[C@H](Cc1ccc(O)cc1)NC(=O)[C@H](CO)NC(=O)CNC(=O)[C@H](CCCCN)NC(=O)[C@H](CC(=O)O)NC(=O)[C@@H](NC(=O)[C@H](CCCCN)NC(=O)c1ccc2c(c1)C(=O)OC21c2ccc(O)cc2Oc2cc(O)ccc21)C(C)C)[C@@H](C)O)C(=O)N[C@@H](Cc1ccc(O)cc1)C(=O)N[C@@H](CC(N)=O)C(=O)N[C@@H](CCCNC(=N)N)C(=O)N[C@@H](CC(N)=O)C(=O)O [N—F-pyrrhocoricin] (5FAM-KVDKGSYLPRPTPPRPIYNRN-OH; C-terminus assumed)
binding to E. coli extreme C-terminus fragment (E. coli DnaK aa596-637): No interaction above the level of the negative control
binding to blocked E. coli DnaK fragment aa591-615 [1]: bound strongly
binding to E. coli A-B helix fragment ([2]; PBS, qualitative): No interaction above the level of the negative control
binding to E. coli A-B helix fragment ([2]; Tris HCl at pH 8.0): did not bind
binding to E. coli D-E helix hinge region aa583-615 [3]: concentration-dependent binding
binding to fragment aa397-439 [4]: weakly
minipolarization value (GroES): under 62
minipolarization value (Ras): under 62
minipolarization value (Hsp60; 2 μM Hsp60): about 62
minipolarization value (Hsp60; 4 μM Hsp60): about 90
binding to D-E helix fragment of S. aureus DnaK ([5]; PBS, qualitative): No interaction above the level of the negative control
binding to S. aureus D-E helix fragment ([5]; Tris HCl at pH 8.0): did not bind
millipolarization values higher over the background (DnaK; 1 nM peptide bound to DnaK): 50%
minipolarization value (DnaK; 2 μM DnaK): about 95
minipolarization value (DnaK; 4 μM DnaK): about 100
minipolarization value (GroEL; 2 μM Gro EL): about 85
minipolarization value (GroEL; 4 μM Gro EL): over 100
minipolarization value (GrpE): under 62
minipolarization value (Hsp70): under 62
